Results from patent publication US20210221822A1, “TRICYCLIC DERIVATIVES INHIBITOR, PREPARATION METHOD, AND APPLICATIONS THEREOF” (Jiangsu Hansoh Pharmaceutical Group Co., Ltd., priority 2018, published 2021).

What was measured:
[1] = system: PI3Kα mutant cancer cells HCC1954 (H1047R); assay: Cell Titer-Glo proliferation inhibition, HCC1954; assay type: cell-based; details: Homo sapiens, 48 to 96 hours
Method: (§1) Experimental method: The proliferation inhibitory effect of the compounds of the examples on PI3Kα mutant cancer cell lines HCC1954, HGC-27 and MKN1 was determined by Cell Titer-Glo method. The cell lines were cultured in RPMI 1640 medium (Gibco #22400089) containing 10% FBS (Gibco #10091148) and 1% P/S (Hyclone #SV30010) at 37° C. and 5% CO2. Before the experiment, the cells were collected and counted, and then the cell density was adjusted. The cells were inoculated in a white 96-well plate (Corning #3610) at a density of 1000 to 10000 cells/well, and incubated in an incubator at 37° C., 5% CO2 overnight. The compound solution of different concentrations was added, and corresponding vehicle control was set at the same time. The cell plate was further incubated in an incubator at 37° C., 5% CO2 for 48 to 96 hours. The cell plate and its content were equilibrated to room temperature. 20 to 100 μL of Cell Titer-Glo solution (Promega #G7573) was added to each well, and the plate was shaked well and incubated at room temperature in the dark for 5 to 30 minutes. The chemiluminescence value was measured by the BioTek SynergyH1 microplate reader.
(§2) The percentage inhibition data of the well treated by the compounds of the examples was calculated through the vehicle control well on the plate {% inhibition rate=100−(test compound value/vehicle control value)×100}. The IC50 value was calculated by fitting the data of different concentrations and corresponding percentage inhibition rates to a four-parameter nonlinear logic formula with GraphPad prism.

[2] = target: T1, PI3Kγ (Homo sapiens, UniProt P48736); assay: ADP-Glo lipid kinase assay, PI3Kγ kinase activity; assay type: biochemical; details: 0.4 nM enzyme, 120 min, 50 μM ATP
T1 construct: purchased Thermofisher PV4786
T1 sequence (P48736 whole entry): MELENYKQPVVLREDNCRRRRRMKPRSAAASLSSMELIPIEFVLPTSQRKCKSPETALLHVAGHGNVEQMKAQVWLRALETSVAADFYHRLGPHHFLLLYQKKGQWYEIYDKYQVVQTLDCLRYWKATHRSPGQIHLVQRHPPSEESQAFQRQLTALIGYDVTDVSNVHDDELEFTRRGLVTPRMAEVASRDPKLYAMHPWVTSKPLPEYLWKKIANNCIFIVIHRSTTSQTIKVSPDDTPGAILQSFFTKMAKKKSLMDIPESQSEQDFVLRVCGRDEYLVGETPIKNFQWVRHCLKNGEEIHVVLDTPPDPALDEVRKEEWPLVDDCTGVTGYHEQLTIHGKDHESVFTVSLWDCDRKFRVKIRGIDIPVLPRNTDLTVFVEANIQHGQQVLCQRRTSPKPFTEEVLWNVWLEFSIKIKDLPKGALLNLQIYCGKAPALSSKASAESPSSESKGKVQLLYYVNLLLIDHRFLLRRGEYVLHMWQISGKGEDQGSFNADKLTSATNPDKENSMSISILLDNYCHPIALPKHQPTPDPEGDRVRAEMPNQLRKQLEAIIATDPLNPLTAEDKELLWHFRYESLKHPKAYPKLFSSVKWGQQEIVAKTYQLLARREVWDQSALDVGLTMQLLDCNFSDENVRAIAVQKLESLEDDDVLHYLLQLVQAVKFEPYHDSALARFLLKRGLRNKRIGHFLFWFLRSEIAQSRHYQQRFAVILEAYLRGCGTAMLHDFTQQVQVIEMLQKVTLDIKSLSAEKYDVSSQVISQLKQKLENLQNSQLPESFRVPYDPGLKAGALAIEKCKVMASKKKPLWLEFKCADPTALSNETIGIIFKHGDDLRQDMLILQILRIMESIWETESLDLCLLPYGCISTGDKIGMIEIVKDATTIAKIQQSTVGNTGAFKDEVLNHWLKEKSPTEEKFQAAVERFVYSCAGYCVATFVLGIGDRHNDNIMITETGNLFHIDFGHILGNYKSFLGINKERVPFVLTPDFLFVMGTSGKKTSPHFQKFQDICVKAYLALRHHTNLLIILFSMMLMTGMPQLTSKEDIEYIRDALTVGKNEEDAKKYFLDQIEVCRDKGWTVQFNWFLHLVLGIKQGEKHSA
In short: (§3)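 ADP-Glo luminescence measured ADP formed by PI3Kα, β, γ or δ (0.1-2 nM working solution) with PIP2:3PS (50 μM added solution) and ATP in HEPES/MgCl2/NaCl/BSA buffer, 90 to 120 min at room temperature. % inhibition was set against DMSO and no-kinase controls, and IC50 came from a four-parameter fit.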

[3] = Pharmacokinetic (PK) assay in mice; assay type: in vivo; details: male, Balb/c, mouse, plasma, po, single intragastric 5 mg/kg
In short: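 Male Balb/c mice received a single intragastric dose of 5 mg/10 ml/kg in 0.5% CMC-Na. Orbital blood was taken at 0.5, 1, 2, 4, 6, 8 and 24 h into K2-EDTA; plasma was acetonitrile-precipitated and analyzed by LC-MS/MS, and PK parameters were calculated.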

[4] = target: T2, PI3Kα (Homo sapiens, UniProt P42336); assay: ADP-Glo lipid kinase assay, PI3Kα kinase activity; assay type: biochemical
T2 construct: purchased Promega V1721
T2 sequence (P42336 whole entry): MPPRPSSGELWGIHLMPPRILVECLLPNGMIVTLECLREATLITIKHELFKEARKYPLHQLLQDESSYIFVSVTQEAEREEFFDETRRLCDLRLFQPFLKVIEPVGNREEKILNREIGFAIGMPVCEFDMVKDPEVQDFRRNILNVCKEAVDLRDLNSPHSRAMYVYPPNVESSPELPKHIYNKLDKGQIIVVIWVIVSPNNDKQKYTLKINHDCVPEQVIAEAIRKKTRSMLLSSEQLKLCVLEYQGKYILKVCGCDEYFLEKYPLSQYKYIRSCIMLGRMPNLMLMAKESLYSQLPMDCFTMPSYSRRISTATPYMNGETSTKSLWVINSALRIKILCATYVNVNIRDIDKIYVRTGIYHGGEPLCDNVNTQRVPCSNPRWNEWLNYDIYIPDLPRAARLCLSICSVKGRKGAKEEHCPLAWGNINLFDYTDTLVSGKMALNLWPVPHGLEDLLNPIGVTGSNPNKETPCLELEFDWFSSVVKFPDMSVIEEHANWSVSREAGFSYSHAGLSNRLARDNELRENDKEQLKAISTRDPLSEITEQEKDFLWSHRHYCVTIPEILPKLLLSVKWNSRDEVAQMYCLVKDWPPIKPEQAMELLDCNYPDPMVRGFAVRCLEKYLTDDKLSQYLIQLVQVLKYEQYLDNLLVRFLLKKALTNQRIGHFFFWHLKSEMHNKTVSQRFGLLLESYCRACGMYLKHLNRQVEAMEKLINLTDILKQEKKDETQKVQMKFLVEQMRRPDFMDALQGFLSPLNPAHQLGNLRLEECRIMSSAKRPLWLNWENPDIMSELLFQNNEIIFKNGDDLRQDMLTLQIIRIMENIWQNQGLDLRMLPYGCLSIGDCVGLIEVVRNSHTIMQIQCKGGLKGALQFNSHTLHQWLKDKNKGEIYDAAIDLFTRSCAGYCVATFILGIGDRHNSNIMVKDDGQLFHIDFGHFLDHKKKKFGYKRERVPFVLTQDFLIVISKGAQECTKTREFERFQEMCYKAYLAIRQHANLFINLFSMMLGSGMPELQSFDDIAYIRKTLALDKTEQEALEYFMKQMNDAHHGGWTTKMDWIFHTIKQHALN
T2 sequence (P27986 whole entry partner): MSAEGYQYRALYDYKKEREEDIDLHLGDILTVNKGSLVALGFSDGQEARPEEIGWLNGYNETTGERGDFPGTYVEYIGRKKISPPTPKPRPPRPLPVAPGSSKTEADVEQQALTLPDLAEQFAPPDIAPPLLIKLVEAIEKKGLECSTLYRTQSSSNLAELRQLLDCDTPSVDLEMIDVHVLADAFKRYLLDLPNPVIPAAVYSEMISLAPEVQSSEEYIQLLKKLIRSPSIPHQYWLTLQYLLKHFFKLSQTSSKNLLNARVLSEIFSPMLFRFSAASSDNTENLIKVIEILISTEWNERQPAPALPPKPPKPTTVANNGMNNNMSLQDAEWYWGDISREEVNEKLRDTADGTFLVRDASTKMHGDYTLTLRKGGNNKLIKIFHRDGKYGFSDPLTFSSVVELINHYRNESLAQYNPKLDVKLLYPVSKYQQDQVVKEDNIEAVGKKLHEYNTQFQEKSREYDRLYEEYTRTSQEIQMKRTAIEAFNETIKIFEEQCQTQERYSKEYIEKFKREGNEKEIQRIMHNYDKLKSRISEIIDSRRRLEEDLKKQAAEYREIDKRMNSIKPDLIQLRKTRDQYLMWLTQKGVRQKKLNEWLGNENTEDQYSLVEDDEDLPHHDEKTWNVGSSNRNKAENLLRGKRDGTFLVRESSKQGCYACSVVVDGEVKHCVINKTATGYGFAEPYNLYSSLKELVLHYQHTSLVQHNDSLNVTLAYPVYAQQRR
In short: as §3

[5] = system: PI3Kα mutant cancer cells HGC-27 (E542K); assay: Cell Titer-Glo proliferation inhibition, HGC-27; assay type: cell-based; details: Homo sapiens, 48 to 96 hours
Method: as §1, §2

[6] = target: T3, PI3Kβ (Homo sapiens, UniProt P42338); assay: ADP-Glo lipid kinase assay, PI3Kβ kinase activity; assay type: biochemical; details: 0.4 nM enzyme, 90 min, 100 μM ATP
T3 construct: purchased Carna 11-102
T3 sequence (P42338 whole entry): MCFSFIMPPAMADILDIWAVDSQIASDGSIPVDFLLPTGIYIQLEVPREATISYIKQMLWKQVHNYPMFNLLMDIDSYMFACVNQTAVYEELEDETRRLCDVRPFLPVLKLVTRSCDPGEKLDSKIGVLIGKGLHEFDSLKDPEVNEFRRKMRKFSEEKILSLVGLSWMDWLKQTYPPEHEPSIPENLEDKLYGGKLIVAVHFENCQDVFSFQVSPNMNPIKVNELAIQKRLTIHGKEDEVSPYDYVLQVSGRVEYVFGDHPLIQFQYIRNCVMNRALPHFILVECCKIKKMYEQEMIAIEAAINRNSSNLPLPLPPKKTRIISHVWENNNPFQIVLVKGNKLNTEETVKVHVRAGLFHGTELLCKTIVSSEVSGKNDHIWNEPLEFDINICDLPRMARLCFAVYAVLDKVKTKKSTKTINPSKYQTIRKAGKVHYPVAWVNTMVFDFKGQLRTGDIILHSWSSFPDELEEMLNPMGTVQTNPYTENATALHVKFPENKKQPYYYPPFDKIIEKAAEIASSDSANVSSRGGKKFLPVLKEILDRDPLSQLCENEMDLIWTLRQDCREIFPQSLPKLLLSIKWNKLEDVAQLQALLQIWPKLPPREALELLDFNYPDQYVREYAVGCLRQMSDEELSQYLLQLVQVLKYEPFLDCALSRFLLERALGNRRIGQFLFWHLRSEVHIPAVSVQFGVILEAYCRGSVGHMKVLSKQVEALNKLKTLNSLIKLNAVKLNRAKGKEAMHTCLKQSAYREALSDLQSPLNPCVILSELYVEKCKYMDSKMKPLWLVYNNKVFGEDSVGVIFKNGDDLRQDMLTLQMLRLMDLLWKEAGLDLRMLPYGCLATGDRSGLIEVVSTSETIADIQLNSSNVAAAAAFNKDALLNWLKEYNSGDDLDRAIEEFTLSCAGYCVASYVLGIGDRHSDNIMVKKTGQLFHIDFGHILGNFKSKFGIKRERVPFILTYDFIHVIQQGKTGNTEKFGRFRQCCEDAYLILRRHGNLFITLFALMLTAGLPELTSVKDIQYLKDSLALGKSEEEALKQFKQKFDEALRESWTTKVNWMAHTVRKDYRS
T3 sequence (P27986 whole entry partner): as the sequence (P27986 whole entry partner) above
In short: as §3

[7] = target: T4, PI3Kδ (Homo sapiens, UniProt O00329); assay: ADP-Glo lipid kinase assay, PI3Kδ kinase activity; assay type: biochemical; details: 0.1 nM enzyme, 90 min, 100 μM ATP
T4 construct: purchased Carna 11-103
T4 sequence (O00329 whole entry): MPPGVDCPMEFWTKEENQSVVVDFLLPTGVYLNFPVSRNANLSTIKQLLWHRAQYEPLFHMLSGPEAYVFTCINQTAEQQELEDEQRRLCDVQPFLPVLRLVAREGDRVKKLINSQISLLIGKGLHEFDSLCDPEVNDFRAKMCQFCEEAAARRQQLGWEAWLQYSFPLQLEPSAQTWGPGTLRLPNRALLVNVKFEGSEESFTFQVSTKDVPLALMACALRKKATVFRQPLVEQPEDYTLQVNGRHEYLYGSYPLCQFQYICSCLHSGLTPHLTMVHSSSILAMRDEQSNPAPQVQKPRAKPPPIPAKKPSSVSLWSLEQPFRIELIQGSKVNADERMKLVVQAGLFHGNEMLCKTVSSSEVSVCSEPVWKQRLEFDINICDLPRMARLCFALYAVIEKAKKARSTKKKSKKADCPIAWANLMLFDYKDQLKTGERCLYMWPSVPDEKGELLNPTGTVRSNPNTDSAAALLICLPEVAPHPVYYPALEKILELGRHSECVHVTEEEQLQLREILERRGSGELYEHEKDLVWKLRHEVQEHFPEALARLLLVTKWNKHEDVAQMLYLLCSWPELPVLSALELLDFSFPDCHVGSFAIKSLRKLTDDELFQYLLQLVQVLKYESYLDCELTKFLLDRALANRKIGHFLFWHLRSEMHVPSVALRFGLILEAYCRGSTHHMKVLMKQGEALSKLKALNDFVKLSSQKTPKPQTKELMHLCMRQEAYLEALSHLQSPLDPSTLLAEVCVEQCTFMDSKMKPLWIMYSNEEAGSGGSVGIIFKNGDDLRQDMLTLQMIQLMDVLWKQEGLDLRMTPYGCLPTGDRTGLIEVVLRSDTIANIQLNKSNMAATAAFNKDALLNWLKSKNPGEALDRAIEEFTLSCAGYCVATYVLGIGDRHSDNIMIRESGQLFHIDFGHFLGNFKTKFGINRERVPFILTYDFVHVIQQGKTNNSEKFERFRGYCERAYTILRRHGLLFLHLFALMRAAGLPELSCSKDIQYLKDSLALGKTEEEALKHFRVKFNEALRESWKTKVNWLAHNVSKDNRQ
T4 sequence (P27986 whole entry partner): as the sequence (P27986 whole entry partner) above
In short: as §3

IC50 [1]: 70 nM | IC50 [2]: 79 nM | AUC(0-t) ([3]; read-out: Area under curve AUC0-t): 1320 ng·h/mL | AUC(0-inf) ([3]; read-out: Area under curve AUC0-∞): 1340 ng·h/mL | half-life ([3]; read-out: Half-life t1/2(h) (converted)): 1.6 h | MRT ([3]; read-out: Mean residence time MRT): 1.8 h | Tmax ([3]; read-out: Peak time tmax): 0.5 h | Cmax ([3]; read-out: Plasma concentration Cmax): 641 ng/mL | IC50 ([4]; ADP-Glo, 0.1 nM enzyme, 120 min, 50 μM ATP): 0.38 nM | Selectivity of PI3Kα vs PI3Kβ ([4]; ratio of IC50 PI3Kβ to IC50 PI3Kα): 521 | Selectivity of PI3Kα vs PI3Kγ ([4]; ratio of IC50 PI3Kγ to IC50 PI3Kα): 208 | Selectivity of PI3Kα vs PI3Kδ ([4]; ratio of IC50 PI3Kδ to IC50 PI3Kα): 63 | IC50 [5]: 111 nM | IC50 [6]: 198 nM | IC50 [7]: 24 nM
Compound: C[C@H](Nc1ccc2c(c1)OCCn1cc(N3C(=O)COC[C@H]3C(F)F)nc1-2)C(N)=O [Example 68, (S)-2-((2-((S)-3-(difluoromethyl)-5-oxomorpholino)-5,6-dihydrobenzo[f]imidazo[1,2-d][1,4]oxazepin-9-yl)amino)propanamide]
